For two molecules, Corn plant response rating (crop injury, 0 = no effect, 100 = complete kill), pest or weed control and plant injury results are on record in patent publication US10131652B2, “Pyrimidinyloxy benzene derivatives as herbicides” (E. I. DU PONT DE NEMOURS AND COMPANY, priority 2014, dated 2018).

Common to all, as to assay type: in vivo
One assay deals with corn (Zea mays). In words: Test B pre-/postemergence plant response. The settings on record: Zea mays, 240 h; for Corn plant response rating (crop injury, 0 = no effect, 100 = complete kill) at 125 g/ha: 125 g ai/ha; for Corn plant response rating (crop injury, 0 = no effect, 100 = complete kill) at 500 g/ha: 500 g ai/ha. Summed up:
(§1)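 Visual injury scores on a 0–100 scale (100 = complete control) relative to untreated plants, taken about 10 days post-treatment in greenhouse. Treatments were a directed preemergence soil spray and a postemergence spray at one- to two-leaf stage, using surfactant-containing solvent formulation.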

Assay [1] has as its system pigweed (Amaranthus retroflexus). In words: Test B pre-/postemergence plant response. The settings on record: Amaranthus retroflexus, 240 h, read-out: Plant response rating, Pigweed; for pest or weed control at 125 g/ha: 125 g ai/ha; for pest or weed control at 500 g/ha: 500 g ai/ha. Summed up:
as §1

Assay [2] concerns giant foxtail (Setaria faberii). In words: Test B pre-/postemergence plant response. The settings on record: Setaria faberi, 240 h, read-out: Plant response rating, Foxtail, Giant; for pest or weed control at 125 g/ha: 125 g ai/ha; for pest or weed control at 500 g/ha: 500 g ai/ha. Summed up:
as §1

Assay [3] concerns barnyardgrass (Echinochloa crus-galli). Kind of assay: Test B pre-/postemergence plant response. The following applies: Echinochloa crus-galli, 240 h, read-out: Plant response rating, Barnyardgrass; for pest or weed control at 125 g/ha: 125 g ai/ha; for pest or weed control at 500 g/ha: 500 g ai/ha. In outline:
as §1

The subject of assay [4] is wheat (Triticum aestivum). In words: Test B pre-/postemergence plant response. The following applies: Triticum aestivum, 240 h, read-out: Plant response rating, Wheat; for plant injury at 125 g/ha: 125 g ai/ha; for plant injury at 500 g/ha: 500 g ai/ha. In outline: as §1
Assay [5] deals with small-flower umbrella sedge (Cyperus difformis). Kind of assay: Test C flooded paddy test plant response. The settings on record: Cyperus difformis; Flood, 250 g ai/ha; scale of 0 to 100 where 0 is no effect and 100 is complete control; 13 to 15 days; read-out: Sedge, Umbrella plant response rating. In outline:
(§2)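 Plants grown to the 2-leaf stage; pots flooded to 3 cm above soil, test compounds applied directly to paddy water, depth maintained throughout. Greenhouse for 13 to 15 days, then visual rating versus controls on a 0–100 scale (0 no effect, 100 complete control).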

In assay [6] the test system is ducksalad (Heteranthera limosa). In words: Test C flooded paddy test plant response. The settings on record: Heteranthera limosa; Flood, 250 g ai/ha; scale of 0 to 100 where 0 is no effect and 100 is complete control; 13 to 15 days; read-out: Ducksalad plant response rating. Summed up: as §2
Assay [7] concerns barnyardgrass (Echinochloa crus-galli). In words: Test C flooded paddy test plant response. The following applies: Echinochloa crus-galli; Flood, 250 g ai/ha; scale of 0 to 100 where 0 is no effect and 100 is complete control; 13 to 15 days; read-out: Barnyardgrass plant response rating. Summed up:
as §2

The subject of the next assay is rice (Oryza sativa). In words: Test C flooded paddy test plant response. The settings on record: Oryza sativa; Flood, 250 g ai/ha; scale of 0 to 100 where 0 is no effect and 100 is complete control; 13 to 15 days; read-out: Rice plant response rating. Summed up: as §2
The mark [8] stands for this setting: post-emergence, postemergence, 0 to 100 scale, 0 no effect, 100 complete control.
The mark [9] stands for this setting: post-emergence, Postemergence, 0 to 100 scale (0 no effect, 100 complete control).
Where [10] appears, read: pre-emergence, Preemergence, 0 to 100 scale where 0 is no effect and 100 is complete control.

SMILES strings stand for the structures. Where two headings read alike, the source gives them in different places.

On to `FC(F)(F)c1ccc(-c2ccccc2Oc2ncc(Cl)cn2)nc1` [Compound 27, 5-chloro-2-[2-[5-(trifluoromethyl)-2-pyridinyl]phenoxy]pyrimidine], for which the Corn plant response rating (crop injury, 0 = no effect, 100 = complete kill) at 125 g/ha in the assay with corn (Zea mays) (setting [8]) and in the assay with corn (Zea mays) (setting [10]) was 0% each time. Besides, the figures for the Corn plant response rating (crop injury, 0 = no effect, 100 = complete kill) at 500 g/ha in the assay on corn (Zea mays) (setting [9]) and in the assay on corn (Zea mays) (setting [10]) were 30% and 0%, respectively. Moreover, the pest or weed control at 125 g/ha is 50% in assay [1] (setting [8]); 80% in assay [1] (setting [10]); 20% in assay [2] (setting [8]); 60% in [2] (setting [10]); 20% in [3] (setting [8]); 10% in [3] (setting [10]). The pest or weed control at 500 g/ha in assay [1] (setting [9]) was found to be 100%; in [1] (setting [10]), 100%; in assay [2] (setting [9]), 70%; in assay [2] (setting [10]) it was 90%; in assay [3] (setting [9]) it was 50%; in assay [3] (setting [10]), 80%. The plant injury at 125 g/ha in [4] (setting [8]) and in assay [4] (setting [10]) was 0% throughout. The plant injury at 500 g/ha in assay [4] (setting [9]) and in assay [4] (setting [10]) was 0% in each case. Further, the pest or weed control at 250 g/ha turned out to be 40% in [5], 30% in [6] and 0% in assay [7]. Besides, the plant injury at 250 g/ha in the assay with rice (Oryza sativa) turned out to be 0%.

For `FC(F)(F)Oc1ccc(-c2ccccc2Oc2ncc(Cl)cn2)cc1` [Compound 42, 5-chloro-2-[[4′-(trifluoromethoxy)[1,1′-biphenyl]-2-yl]oxy]pyrimidine], the Corn plant response rating (crop injury, 0 = no effect, 100 = complete kill) at 125 g/ha in the assay on corn (Zea mays) (setting [8]) came out at 20%; in the assay with corn (Zea mays) (setting [10]), 0%. Also, the Corn plant response rating (crop injury, 0 = no effect, 100 = complete kill) at 500 g/ha in the assay with corn (Zea mays) (setting [9]) came to 20%; with corn (Zea mays) (setting [10]), 0%. The pest or weed control at 125 g/ha was 60% in assay [1] (setting [8]); 50% in assay [1] (setting [10]); 10% in [2] (setting [8]); 70% in [2] (setting [10]); 20% in [3] (setting [8]); 20% in [3] (setting [10]). In addition, the pest or weed control at 500 g/ha stood at 80% in assay [1] (setting [9]); 90% in assay [1] (setting [10]); 30% in assay [2] (setting [9]); 100% in assay [2] (setting [10]); 30% in assay [3] (setting [9]); 70% in assay [3] (setting [10]). Besides, the plant injury at 125 g/ha in [4] (setting [8]) and in assay [4] (setting [10]) was 0% throughout. Further, the plant injury at 500 g/ha in assay [4] (setting [9]) and in assay [4] (setting [10]) was 0% throughout. The pest or weed control at 250 g/ha in [5], in [6] and in [7] was 0% each time. The plant injury at 250 g/ha in the assay with rice (Oryza sativa) came out at 0%.
